{
  "source": "patent US8343951B2",
  "about": "“Volatile sulfide production inhibitor and method for inhibiting the production of volatile sulfide using the inhibitor” (Kabushiki Kaisha Hayashibara Seibutsu Kagaku Kenkyujo, priority 2006, dated 2013)",
  "key": {"[1]": {"assay": "Dimethyl-sulfide and dimethyl-disulfide production from heated milk (headspace gas chromatography)", "conditions": "for Produced Dimethyl-disulfide / Produced Dimethyl-sulfide: milk heated 130° C. one minute; for production of volatile sulfides (dimethyl-sulfide and dimethyl-disulfide) from the test solutions / Produced Volatile sulfide: milk; for Inhibiting rate of volatile sulfide production: relative to control milk; for Produced Volatile sulfide: sum of dimethyl-sulfide and dimethyl-disulfide", "method": "AA-2G (reagent grade, commercialized by Hayashibara Biochemical Laboratories, Inc.) was added in commercial milk to give the concentrations described in Table 2 to make the test solutions. Test solutions containing ascorbic acid were prepared in the same way except for using ascorbic acid (guaranteed regent) in place of AA-2G. The commercial milk was used plain as control. Sensory test of the solutions was performed by 11 panelists to evaluate the taste of each test solution added with AA-2G or ascorbic acid as being different (D) from control or as being the same (S) as control. As a result, eight or more of the 11 panelists gave a same evaluation to each test solution.\nOne ml of the above samples were put into 20 ml-vials and sealed with butyl rubber cap and aluminum seal. After heated at 130° C. for one minute, the amounts of dimethyl-sulfide and dimethyl-disulfide in the headspace were measured by gas chromatography in conventional way. The sums of them were shown as the amounts of volatile sulfide in Table 2. Also the inhibiting rates (%) of volatile sulfide production were shown in Table 2, which were obtained by subtracting the percentage amounts of volatile sulfide produced from ml of the test solutions relative to the amount of volatile sulfide produced from 1 ml of control (milk) from 100 to obtain."}, "[2]": {"assay": "Hydrogen sulfide production from heated mackerel meat homogenate (headspace detecting tube)", "conditions": "for Produced Volatile sulfide: hydrogen sulfide in headspace; for Inhibiting rate of volatile sulfide production: hydrogen sulfide, relative to control", "method": "AA-2G (reagent grade, commercialized by Hayashibara Biochemical Laboratories, Inc.) was dissolved in distilled water to give a solution of a concentration of 10%. A certain amount of the solution and 5 ml of 500 mM phosphate buffer (pH 7.0) were put into measuring flask and filled up to 50 ml to give the test solutions containing AA-2G at the twofold concentration described in Table 1. Also the test solutions containing ascorbic acid were prepared in the same way except for using ascorbic acid (guaranteed regent) in place of AA-2G. Five ml of 500 mM phosphate buffer (pH 7.0) was filled up to 50 ml with distilled water to give control solution. Edible part of commercial mackerel fillet without bone and skin was chopped with trio blender and homogeneously stirred to make minced mackerel. Forty-five grams of the minced mackerel was put into a beaker and added with 45 g of the test solution or control solution to give the samples at the concentration of AA-2G or ascorbic acid described in Table 1. The samples were treated with homogenizer (produced by IKA Works Inc.) at ice-chilled temperature to give the homogenates as the test samples. PH of the homogenates is from 6.21 to 6.38. Ten grams of the above samples were put into 20 ml-vials and sealed with butyl rubber cap and aluminum seal. They were heated in boiled water bath for 15 minutes and cooled in running cool water. After cooled, they were heated on heating block (80° C.) for 10 minutes and the solidified samples were broken with vortex mixer. The amounts of hydrogen sulfide in the headspace gas were measured by hydrogen sulfide detecting tube ([…] No. 4LT, produced by GL Sciences Inc.). Also the inhibiting rate (%) of hydrogen sulfide production were shown in Table 1, which were obtained by subtracting the percentage amounts of hydrogen sulfide produced from 1 g of mackerel meats added with test solutions relative to the amount of hydrogen sulfide produced from 1 g of mackerel meat added with control solution from 100 to obtain."}},
  "data": [
    {"smiles": "O=C1O[C@H]([C@@H](O)CO)C(O)=C1O[C@H]1O[C@H](CO)[C@@H](O)[C@H](O)[C@H]1O", "note": "[AA-2G, α-D-glucopyronosyl-(1→2)-L-ascorbic acid]", "values": [
      {"measurement": "Produced Dimethyl-disulfide", "setting": "[1]; additive 0.0001% in sample", "result": 0.54, "unit": "μg/ml-milk"},
      {"measurement": "Produced Dimethyl-sulfide", "setting": "[1]; additive 0.0001% in sample", "result": 1.30, "unit": "μg/ml-milk"},
      {"measurement": "Produced Dimethyl-disulfide", "setting": "[1]; additive 0.0005% in sample", "result": 0.43, "unit": "μg/ml-milk"},
      {"measurement": "Produced Dimethyl-sulfide", "setting": "[1]; additive 0.0005% in sample", "result": 1.12, "unit": "μg/ml-milk"},
      {"measurement": "Produced Dimethyl-disulfide", "setting": "[1]; additive 0.001% in sample", "result": 0.37, "unit": "μg/ml-milk"},
      {"measurement": "Produced Dimethyl-sulfide", "setting": "[1]; additive 0.001% in sample", "result": 0.75, "unit": "μg/ml-milk"},
      {"measurement": "Produced Dimethyl-disulfide", "setting": "[1]; additive 0.005% in sample", "result": 0.14, "unit": "μg/ml-milk"},
      {"measurement": "Produced Dimethyl-sulfide", "setting": "[1]; additive 0.005% in sample", "result": 0.23, "unit": "μg/ml-milk"},
      {"measurement": "Produced Dimethyl-disulfide", "setting": "[1]; additive 0.01% in sample", "result": 0.14, "unit": "μg/ml-milk"},
      {"measurement": "Produced Dimethyl-sulfide", "setting": "[1]; additive 0.01% in sample", "result": 0.11, "unit": "μg/ml-milk"},
      {"measurement": "Produced Dimethyl-disulfide", "setting": "[1]; additive 0.05% in sample", "result": 0.07, "unit": "μg/ml-milk"},
      {"measurement": "Produced Dimethyl-sulfide", "setting": "[1]; additive 0.05% in sample", "result": 0.07, "unit": "μg/ml-milk"},
      {"measurement": "Produced Dimethyl-disulfide", "setting": "[1]; additive 0.1% in sample", "result": 0.07, "unit": "μg/ml-milk"},
      {"measurement": "Produced Dimethyl-sulfide", "setting": "[1]; additive 0.1% in sample", "result": 0.06, "unit": "μg/ml-milk"},
      {"measurement": "Produced Dimethyl-disulfide", "setting": "[1]; additive 0.5% in sample", "result": 0.08, "unit": "μg/ml-milk"},
      {"measurement": "Produced Dimethyl-sulfide", "setting": "[1]; additive 0.5% in sample", "result": 0.10, "unit": "μg/ml-milk"},
      {"measurement": "Produced Dimethyl-disulfide", "setting": "[1]; additive 2.5% in sample", "result": 0.19, "unit": "μg/ml-milk"},
      {"measurement": "Produced Dimethyl-sulfide", "setting": "[1]; additive 2.5% in sample", "result": 0.28, "unit": "μg/ml-milk"},
      {"measurement": "production of volatile sulfides (dimethyl-sulfide and dimethyl-disulfide) from the test solutions", "setting": "[1]; concentration from 0.005 to 0.5%", "result": "strongly inhibited"},
      {"measurement": "production of volatile sulfides (dimethyl-sulfide and dimethyl-disulfide) from the test solutions", "setting": "[1]; concentration of 0.0005% or more, compared to control", "result": "inhibited"},
      {"measurement": "Inhibiting rate of volatile sulfide production", "setting": "[1]; additive 0.0001% in sample", "result": 2.6, "unit": "%"},
      {"measurement": "Inhibiting rate of volatile sulfide production", "setting": "[1]; additive 0.0005% in sample", "result": 18.0, "unit": "%"},
      {"measurement": "Inhibiting rate of volatile sulfide production", "setting": "[1]; additive 0.001% in sample", "result": 40.7, "unit": "%"},
      {"measurement": "Inhibiting rate of volatile sulfide production", "setting": "[1]; additive 0.005% in sample", "result": 80.4, "unit": "%"},
      {"measurement": "Inhibiting rate of volatile sulfide production", "setting": "[1]; additive 0.01% in sample", "result": 86.8, "unit": "%"},
      {"measurement": "Inhibiting rate of volatile sulfide production", "setting": "[1]; additive 0.05% in sample", "result": 92.6, "unit": "%"},
      {"measurement": "Inhibiting rate of volatile sulfide production", "setting": "[1]; additive 0.1% in sample", "result": 93.1, "unit": "%"},
      {"measurement": "Inhibiting rate of volatile sulfide production", "setting": "[1]; additive 0.5% in sample", "result": 90.5, "unit": "%"},
      {"measurement": "Inhibiting rate of volatile sulfide production", "setting": "[1]; additive 2.5% in sample", "result": 75.1, "unit": "%"},
      {"measurement": "Produced Volatile sulfide", "setting": "[1]; additive 0.0001% in sample", "result": 1.94, "unit": "µg/mL"},
      {"measurement": "Produced Volatile sulfide", "setting": "[1]; additive 0.0005% in sample", "result": 1.55, "unit": "µg/mL"},
      {"measurement": "Produced Volatile sulfide", "setting": "[1]; additive 0.001% in sample", "result": 1.12, "unit": "µg/mL"},
      {"measurement": "Produced Volatile sulfide", "setting": "[1]; additive 0.005% in sample", "result": 0.37, "unit": "µg/mL"},
      {"measurement": "Produced Volatile sulfide", "setting": "[1]; additive 0.01% in sample", "result": 0.25, "unit": "µg/mL"},
      {"measurement": "Produced Volatile sulfide", "setting": "[1]; additive 0.05% in sample", "result": 0.14, "unit": "µg/mL"},
      {"measurement": "Produced Volatile sulfide", "setting": "[1]; additive 0.1% in sample", "result": 0.13, "unit": "µg/mL"},
      {"measurement": "Produced Volatile sulfide", "setting": "[1]; additive 0.5% in sample", "result": 0.18, "unit": "µg/mL"},
      {"measurement": "Produced Volatile sulfide", "setting": "[1]; additive 2.5% in sample", "result": 0.47, "unit": "µg/mL"},
      {"measurement": "hydrogen sulfide production from homogenate of mackerel meat", "setting": "[2]; AA-2G concentration of 0.1%", "result": "enhanced"},
      {"measurement": "hydrogen sulfide production from homogenate of mackerel meat", "setting": "[2]; concentration in a range from 0.0005 to 0.5%, versus control", "result": "inhibited"},
      {"measurement": "Produced Volatile sulfide", "setting": "[2]; additive 0.0001% in sample", "result": 44.5, "unit": "μg/g-mackerel"},
      {"measurement": "Produced Volatile sulfide", "setting": "[2]; additive 0.0005% in sample", "result": 30.7, "unit": "μg/g-mackerel"},
      {"measurement": "Produced Volatile sulfide", "setting": "[2]; additive 0.001% in sample", "result": 17.4, "unit": "μg/g-mackerel"},
      {"measurement": "Produced Volatile sulfide", "setting": "[2]; additive 0.005% in sample", "result": 11.5, "unit": "μg/g-mackerel"},
      {"measurement": "Produced Volatile sulfide", "setting": "[2]; additive 0.01% in sample", "result": 13.2, "unit": "μg/g-mackerel"},
      {"measurement": "Produced Volatile sulfide", "setting": "[2]; additive 0.025% in sample", "result": 16.1, "unit": "μg/g-mackerel"},
      {"measurement": "Produced Volatile sulfide", "setting": "[2]; additive 0.05% in sample", "result": 19.9, "unit": "μg/g-mackerel"},
      {"measurement": "Produced Volatile sulfide", "setting": "[2]; additive 0.1% in sample", "result": 25.9, "unit": "μg/g-mackerel"},
      {"measurement": "Produced Volatile sulfide", "setting": "[2]; additive 0.5% in sample", "result": 38.2, "unit": "μg/g-mackerel"},
      {"measurement": "Produced Volatile sulfide", "setting": "[2]; additive 1.0% in sample", "result": 48.5, "unit": "μg/g-mackerel"},
      {"measurement": "Inhibiting rate of volatile sulfide production", "setting": "[2]; additive 0.0001% in sample", "result": "−3.0", "unit": "%"},
      {"measurement": "Inhibiting rate of volatile sulfide production", "setting": "[2]; additive 0.0005% in sample", "result": 28.9, "unit": "%"},
      {"measurement": "Inhibiting rate of volatile sulfide production", "setting": "[2]; additive 0.001% in sample", "result": 59.7, "unit": "%"},
      {"measurement": "Inhibiting rate of volatile sulfide production", "setting": "[2]; additive 0.005% in sample", "result": 73.4, "unit": "%"},
      {"measurement": "Inhibiting rate of volatile sulfide production", "setting": "[2]; additive 0.01% in sample", "result": 69.4, "unit": "%"},
      {"measurement": "Inhibiting rate of volatile sulfide production", "setting": "[2]; additive 0.025% in sample", "result": 62.7, "unit": "%"},
      {"measurement": "Inhibiting rate of volatile sulfide production", "setting": "[2]; additive 0.05% in sample", "result": 53.9, "unit": "%"},
      {"measurement": "Inhibiting rate of volatile sulfide production", "setting": "[2]; additive 0.1% in sample", "result": 40.0, "unit": "%"},
      {"measurement": "Inhibiting rate of volatile sulfide production", "setting": "[2]; additive 0.5% in sample", "result": 11.6, "unit": "%"},
      {"measurement": "Inhibiting rate of volatile sulfide production", "setting": "[2]; additive 1.0% in sample", "result": "−12.3", "unit": "%"}
    ]}
  ]
}
